Source: patent publication US20100004267A1, “LIQUID PREPARATION” (ASUBIO PHARMA CO., LTD., priority 2006, published 2010)

Assays:
[1] = Examination on prevention of light decomposition (Test example 5); type: physicochemical
Protocol: To 800 mL of purified water, 100 g of Captisol (available from CyDex Inc.) serving as a solubilizing agent, 1 g of sodium bisulfite (available from JUNSEI CHEMICAL) serving as an antioxidant, and 5 g of SUN N8075 were sequentially dissolved, and the volume was adjusted to precisely 1,000 mL with purified water, and filtered under reduced pressure. Then each 20 mL of the solution was filled into a colorless ampule (Silicoat ampule, white, 20 mL capacity, available from FUJI GLASS CO., LTD.) and a brown ampule (Silicoat ampule, brown, 20 mL capacity, available from FUJI GLASS CO., LTD.), and then the ampule was sealed. Using autoclave (FLC-M09S30WZ, available from SAKURA SEIKI Co., Ltd.), autoclave sterilization was conducted in a setting condition: 121° C./24 minutes.
A sample of each of these ampules was stored under D65 lamp 2,000 Lux, and irradiated with 40, 80, 120×10^4 Lux, and then SUN N8075 related substances were measured with a HPLC device. The related substances were calculated as a peak ratio of the total related substances, relative to SUN N8075 peak area.
To 150 mL of purified water, a predetermined amount (none, 0.05 g, 0.1 g and 0.2 g) of sodium bisulfite (available from JUNSEI CHEMICAL) serving as an antioxidant, and 1 g of SUN N8075 were sequentially dissolved, and the volume was adjusted to precisely 200 mL with purified water. After filtering under reduced pressure, the solution was bubbled with nitrogen gas for 5 minutes. Then 20 mL of the solution was immediately filled into a brown ampule (Silicoat ampule, brown, 20 mL capacity, available from FUJI GLASS CO., LTD.) having subjected to nitrogen gas replacement, and then the ampule was sealed. Using autoclave (FLC-M09S30WZ, available from SAKURA SEIKI Co., Ltd.), autoclave sterilization was conducted in a setting condition: 121° C./24 minutes.
A sample of each of these ampules was stored under D65 lamp 2,000 Lux, and irradiated with 40×10^4 Lux, and then SUN N8075 related substances were measured with a HPLC device. The related substances were calculated as a peak ratio of the total related substances, relative to SUN N8075 peak area.
As a control sample, 1 g of SUN N8075 was dissolved into 150 mL of purified water, and the volume was adjusted precisely to 200 mL with purified water. Then the solution was filtered under reduced pressure, and bubbled with nitrogen gas for 5 minutes. Then 20 mL of the solution was immediately filled into a brown ampule (Silicoat ampule, brown, 20 mL capacity, available from FUJI GLASS CO., LTD.) replaced with nitrogen gas, and then the ampule was sealed.
This was prepared as a control sample at the start of the test, and SUN N8075 related substances were measured in the similar manner.

[2] = Examination of properties of SUN N8075 itself; type: physicochemical; settings: pH around neutrality
[3] = Control: without sodium bisulfite, brown ampule, Start
[4] = N2 gas replacement, sodium bisulfite 0.05%, brown ampule, irradiation 40 ×10^4 LUX
[5] = N2 gas replacement, sodium bisulfite 0.1%, brown ampule, irradiation 40 ×10^4 LUX
[6] = N2 gas replacement, sodium bisulfite […], brown ampule, irradiation 40 ×10^4 LUX
[7] = N2 gas replacement, without sodium bisulfite, brown ampule, irradiation 40 ×10^4 LUX
[8] = without N2 gas replacement, sodium bisulfite 0.1%, Captisol 10%, brown ampule, irradiation 40 ×10^4 LUX
[9] = without N2 gas replacement, sodium bisulfite 0.1%, Captisol 10%, brown ampule, irradiation 80 ×10^4 LUX
[10] = without N2 gas replacement, sodium bisulfite 0.1%, Captisol 10%, brown ampule, irradiation 120 ×10^4 LUX
[11] = without N2 gas replacement, sodium bisulfite 0.1%, Captisol 10%, colorless ampule, irradiation 40 ×10^4 LUX
[12] = without N2 gas replacement, sodium bisulfite 0.1%, Captisol 10%, colorless ampule, irradiation 80 ×10^4 LUX
[13] = without N2 gas replacement, sodium bisulfite 0.1%, Captisol 10%, colorless ampule, irradiation 120 ×10^4 LUX

Related Substance Peak ratio [1, 3]: 0.629 | SUN N8075 Peak ratio [1, 3]: 99.37 | Related Substance Peak ratio [1, 4]: 0.608 | SUN N8075 Peak ratio [1, 4]: 99.39 | Related Substance Peak ratio [1, 5]: 0.567 | SUN N8075 Peak ratio [1, 5]: 99.43 | Related Substance Peak ratio [1, 6]: 0.581 | SUN N8075 Peak ratio [1, 6]: 99.42 | Related Substance Peak ratio [1, 7]: 0.967 | SUN N8075 Peak ratio [1, 7]: 99.03 | Related Substance Peak ratio [1, 8]: 1.140 | SUN N8075 Peak ratio [1, 8]: 98.86 | Related Substance Peak ratio [1, 9]: 1.301 | SUN N8075 Peak ratio [1, 9]: 98.70 | Related Substance Peak ratio [1, 10]: 1.750 | SUN N8075 Peak ratio [1, 10]: 98.25 | Related Substance Peak ratio [1, 11]: 4.552 | SUN N8075 Peak ratio [1, 11]: 95.45 | Related Substance Peak ratio [1, 12]: 4.953 | SUN N8075 Peak ratio [1, 12]: 95.05 | Related Substance Peak ratio [1, 13]: 5.987 | SUN N8075 Peak ratio [1, 13]: 94.01 | Solubility [2]: very low
SMILES: Cc1cc(OC[C@@H](O)CN2CCN(c3ccc(Cc4ccc(F)cc4)cc3)CC2)c(C)c(C)c1N [SUN N8075, (2S)-1-(4-amino-2,3,5-trimethylphenoxy)-3-{4-[4-(4-fluorobenzyl)phenyl]-1-piperazinyl}-2-propanol dimethane sulfonate]
